We go through 3 compounds from patent US20260265199A1, “CRYSTALLINE FORMS OF (R)-2-AMINO-5-(4-(2-(3,5-DIFLUOROPHENYL)-2-HYDROXYACETAMIDO)-2-METHYLPHENYL)-N-ISOPROPYLNICOTINAMIDE AND METHODS FOR USING THE SAME” (HIBERCELL, INC., priority 2023, published 2026).

Counter-ions that a name gives are not always drawn. Like-named read-outs stand apart in the source and are kept apart here.

What all share (format): physicochemical
A short description of data set [1]: Variable temperature study of Form B (cycling DSC, VT-XRPD). The method, then:
XRPD patterns were collected with a PANalytical X'Pert PRO MPD diffractometer using an incident beam of Cu Kα radiation produced using a long, fine-focus source and a nickel filter. The diffractometer was configured using the symmetric Bragg-Brentano geometry. Data were collected and analyzed using Data Collector software v. 5.5. Prior to the analysis, a silicon specimen (NIST SRM 640e) was analyzed to verify the observed position of the Si 111 peak is consistent with the NIST-certified position. A specimen of the sample was packed in a nickel-coated copper well. Anti-scatter slits (SS) were used to minimize the background generated by air scattering. Soller slits for the incident and diffracted beams were used to minimize broadening from axial divergence. Diffraction patterns were collected using a scanning position-sensitive detector (X'Celerator) located 240 mm from the sample. The data acquisition parameters for each pattern are disclosed, including the divergence slit (DS) and the incident-beam SS.
An Anton Paar TTK 450 stage was used to collect in-situ XRPD patterns as a function of temperature. The sample was heated with a resistance heater located directly under the sample holder, and the temperature was monitored with a platinum-100 resistance sensor located in the specimen holder. The heater was powered and controlled by an Anton Paar TCU 100 interfaced with Data Collector.
DSC was performed using a Mettler-Toledo DSC3+ differential scanning calorimeter. A tau lag adjustment was performed with indium, tin, and zinc. The temperature and enthalpy were adjusted with octane, phenyl salicylate, indium, tin, and zinc. The adjustment was then verified with octane, phenyl salicylate, indium, tin, and zinc. The sample was placed into a hermetically sealed aluminum DSC pan, and the weight was accurately recorded. The pan was then inserted into the DSC cell. A weighed aluminum pan configured as the sample pan was placed on the reference side of the cell. The pan lid was pierced prior to sample analysis. Samples were analyzed from −30° C. to 250° C. @ 10°/min. The cyclic DSC method heated from −30° C. to 100° C., returned to −30° C., then heated to 250° C. at 10°/min.
The thermal events associated with heating Form B, prepared according to Example 30, were further investigated by cycling DSC and variable temperature XRPD (FIG. 33 and FIG. 34, respectively). […] This phase transition was confirmed by VT-XRPD (see the diffraction pattern obtained at 100° C. in FIG. 34). During the first DSC cooling cycle, an exotherm at approximately 35° C. was observed. […] During the final DSC heating cycle, Form B first undergoes a phase transition to Material F at approximately 67° C. (endotherm). […] (endotherm) and immediately recrystallize as Form A (exotherm onset at approximately 164° C.). […] Determining which solid form was obtained after recrystallization was confirmed by VT-XRPD (the pattern obtained at approximately 175° C., FIG. 34).
It is believed that this solid state behavior can be explained due to the relative stability of Form B and Material F is reversed in passing the transition temperature. For enantiotropic systems where hysteresis is minimal within the timescale measured, the transition temperature must lie between the onset temperatures of the observed endotherm and exotherm. Therefore, a transition temperature of ~49° C. was estimated from the thermogram with the use of the lever rule.
The XRPD acquisition parameters used to collect the VT-XRPD data presented in Table 33 are as follows: X-ray Tube: Cu (1.54059 Å); voltage: 45 kV; amperage: 40 mA; scan range: 3.50-29.99° 2θ; step size: 0.017° 2θ; scan speed: 1.7° per minute; slit: DS: fixed slit ¼°; SS: fixed slit: ½°; revolution time: 0.0 null; and mode: reflection. The XRPD data collection times for the experiment are specified in Table 33.

Data set [2] is described as follows: Physical stability of Form C at ambient conditions (XRPD). The method, then: The initial samples were then analyzed by XRPD. Thereafter, the vials were sealed and the samples were allowed to sit at ambient conditions for 9, 13, or 25 days (as designated in Table 35). The samples were then reanalyzed by XRPD.
Data set [3] is described as follows: Solubility of mono-fumarate Form A estimated by solvent addition, visual assessment. The source says: The solubility of Form A of the mono-fumarate salt of the compound of formula (I) was estimated using solvent addition method via visual assessment of the samples.
A short description of data set [4]: Slurry study of Form A of the mono-fumarate salt (XRPD of solids). On the procedure:
XRPD patterns of samples were collected using with an X-ray diffractometer (Bruker D8 advance). The system was equipped with LynxEye detector. Samples were scanned from 3 to 40° 2θ, at a step size 0.02° 2θ. The tube voltage and current were 40 KV and 40 mA, respectively.
Slurry studies were conducted using 12 solvents at RT or 50° C. Solid samples were collected by filtration and analyzed by XRPD at a specific time.

Take `Cc1cc(NC(=O)[C@H](O)c2cc(F)cc(F)c2)ccc1-c1cnc(N)c(C(=O)NC(C)C)c1` [Form B, (R)-2-amino-5-(4-(2-(3,5-difluorophenyl)-2-hydroxyacetamido)-2-methylphenyl)-N-isopropylnicotinamide]: the “Result (VT-XRPD)” value in data set [1] (30° C., 1st scan in table order) is on record as “Form B”; in data set [1] (30° C., 4th scan in table order), “Material F”; in data set [1] (30° C., 8th scan in table order), “Form A”; in data set [1] (75° C., 2nd scan in table order), “Form B”; in data set [1] (75° C., 5th scan in table order), “Material F”; in data set [1] (100° C., 3rd scan in table order), “Material F”. Moreover, the “Result (VT-XRPD)” value in data set [1] (100° C., 6th scan in table order) is “Material F”; in data set [1] (175° C., 7th scan in table order), “Form A^1”. Further, the “Relative stability of Form B vs Material F (enantiotropes)” value in data set [1] (below the transition temperature) was “more stable, relative to Material F, below the transition temperature”.
Take `Cc1cc(NC(=O)[C@H](O)c2cc(F)cc(F)c2)ccc1-c1cnc(N)c(C(=O)NC(C)C)c1` [Form C, (R)-2-amino-5-(4-(2-(3,5-difluorophenyl)-2-hydroxyacetamido)-2-methylphenyl)-N-isopropylnicotinamide]: the “Result (XRPD)” value in data set [2] (Acetone, ambient conditions, stored for 13 days) is given as “Form B (FIG. 38B)”; in data set [2] (Acetone, initial sample), “Form B + Form C”; in data set [2] (MeCN, ambient conditions, stored for 25 days), “Form B (FIG. 38D)”; in data set [2] (MeCN, initial sample), “Form C (FIG. 38C)”; in data set [2] (MeCN/water, ambient conditions, stored for 9 days) it was “Form C + Form B”; in data set [2] (MeCN/water, initial sample), “Form C (FIG. 38E)”. For the same compound, the “Physical stability of Form C (XRPD)” value in data set [2] (ambient conditions, irrespective of solvent system used to prepare Form C) was “desolvates and either partially converts or fully converts to Form B within days”. Moreover, the “Solid form (XRPD) after storage” value was “mixture of Form B and Form C” in data set [2] (sample obtained from acetonitrile and water, ambient conditions, 9 days); “Form B” in data set [2] (sample obtained from acetonitrile, ambient conditions, 25 days).
Regarding `Cc1cc(NC(=O)[C@H](O)c2cc(F)cc(F)c2)ccc1-c1cnc(N)c(C(=O)NC(C)C)c1` [Form A of the mono-fumarate salt, (R)-2-amino-5-(4-(2-(3,5-difluorophenyl)-2-hydroxyacetamido)-2-methylphenyl)-N-isopropylnicotinamide], the solubility was greater than 3 mg/mL in data set [3] (EtOAc, organic solvent or mixture, thermodynamic from solid, EtOAc, read-out: Solubility); greater than 22.5 mg/mL in data set [3] (EtOH, organic solvent or mixture, thermodynamic from solid, EtOH, read-out: Solubility); greater than 23.4 mg/mL in data set [3] (IPA, organic solvent or mixture, thermodynamic from solid, IPA, read-out: Solubility); greater than 2.1 mg/mL in data set [3] (IPAc, organic solvent or mixture, thermodynamic from solid, IPAc, read-out: Solubility); greater than 11.7 mg/mL in data set [3] (MEK, organic solvent or mixture, thermodynamic from solid, MEK, read-out: Solubility); greater than 4.2 mg/mL in data set [3] (MTBE, organic solvent or mixture, thermodynamic from solid, MTBE, read-out: Solubility). Further, the solubility in data set [3] (MeCN, organic solvent or mixture, thermodynamic from solid, MeCN, read-out: Solubility) was greater than 2.2 mg/mL; in data set [3] (MeOH) it was greater than 53.2 mg/mL; in data set [3] (MeOH, organic solvent or mixture, thermodynamic from solid, MeOH, read-out: Solubility) it was greater than 50 mg/mL; in data set [3] (THF), greater than 52.6 mg/mL; in data set [3] (THF, organic solvent or mixture, thermodynamic from solid, THF, read-out: Solubility) it was greater than 50 mg/mL; in data set [3] (acetone, organic solvent or mixture, thermodynamic from solid, Acetone, read-out: Solubility), greater than 13.4 mg/mL. The solubility in data set [3] (heptane, organic solvent or mixture, thermodynamic from solid, Heptane, read-out: Solubility) is less than 1 mg/mL; in data set [3] (isobutanol, organic solvent or mixture, thermodynamic from solid, Isobutanol, read-out: Solubility), greater than 11.1 mg/mL; in data set [3] (toluene, organic solvent or mixture, thermodynamic from solid, Toluene, read-out: Solubility), less than 1.1 mg/mL; in data set [3] (water, thermodynamic from solid, Water, read-out: Solubility), less than 1.1 mg/mL. Also, the “XRPD result after slurry” value is recorded as “Mono-fumarate Form A” in data set [4] (2-Butanone, 50° C., 2 days); “Mono-fumarate Form A” in data set [4] (2-Butanone, room temperature, 5 days); “Mono-fumarate Form A” in data set [4] (Acetone, 50° C., 2 days); “Mono-fumarate Form A” in data set [4] (Acetone, room temperature, 5 days); “Low crystallinity” in data set [4] (EtOAc, 50° C., 2 days); “Low crystallinity” in data set [4] (EtOAc, room temperature, 5 days). The “XRPD result after slurry” value is given as “Solid” in data set [4] (EtOH, room temperature, 5 days); “Mono-fumarate Form A” in data set [4] (Heptane, 50° C., 2 days); “Mono-fumarate Form A” in data set [4] (Heptane, room temperature, 5 days); “Hemi-fumarate Form A” in data set [4] (IPA, 50° C., 2 days); “Hemi-fumarate Form A” in data set [4] (IPA, room temperature, 5 days); “Hemi-fumarate Form A” in data set [4] (IPAc, 50° C., 2 days). For the same compound, the “XRPD result after slurry” value in data set [4] (IPAc, room temperature, 5 days) is “Low crystallinity”; in data set [4] (Isobutanol, 50° C., 2 days), “Hemi-fumarate Form A”; in data set [4] (Isobutanol, room temperature, 5 days) it was “Hemi-fumarate Form A”; in data set [4] (MTBE, 50° C., 2 days), “Hemi-fumarate Form A”; in data set [4] (MTBE, room temperature, 5 days), “Low crystallinity”; in data set [4] (MeCN, room temperature, 5 days) it was “Low crystallinity”. Moreover, the “XRPD result after slurry” value in data set [4] (Toluene, 50° C., 2 days) is given as “Hemi-fumarate Form A”; in data set [4] (Toluene, room temperature, 5 days) it was “Low crystallinity”; in data set [4] (Water, 50° C., 2 days), “Alternative pattern”; in data set [4] (Water, room temperature, 5 days), “Alternative pattern”.
